Activity calls are given as the source filed them. No cut-off for these calls is given here.
Tests used:
MCF7 [1] = test: Antiproliferative activity against human MCF7 cells after 72 hrs by MTT assay; assay type: functional, cell-based; conditions: MCF7, 72 h
MDA-MB-231 = test: Antiproliferative activity against human MDA231 cells after 72 hrs by MTT assay; assay type: functional, cell-based; conditions: MDA-MB-231, 72 h
MAP kinase p38 = MAP kinase p38 (Homo sapiens, UniProt O15264+Q15759+Q16539+P53778); test: Inhibition of p38alpha MAPK (unknown origin) using ATF-2 as substrate after 1 hr by ELISA; assay type: protein assay
MCF7 [2] = test: Induction of apoptosis in human MCF7 cells assessed as late apoptotic cells after 48 hrs by Annexin V-FITC/propidium iodide staining-based flow cytometric analysis (reference value: 0.52%); assay type: functional
MCF7 [3] = test: Induction of apoptosis in human MCF7 cells assessed as increase in caspase-7 activity by ELISA; assay type: functional, cell-based
MCF7 [4] = test: Cell cycle arrest in human MCF7 cells assessed as accumulation of cells at S phase after 48 hrs by propidium iodide staining-based flow cytometric analysis (reference value: 39.38%); assay type: functional
MCF7 [5] = test: Induction of apoptosis in human MCF7 cells assessed as increase in caspase-7 mRNA expression after 48 hrs by RT-PCR analysis; assay type: functional, cell-based
MCF7 [6] = test: Cell cycle arrest in human MCF7 cells assessed as accumulation of cells at G2/M phase after 48 hrs by propidium iodide staining-based flow cytometric analysis (reference value: 6.68%); assay type: functional
MCF7 [7] = test: Induction of apoptosis in human MCF7 cells assessed as necrotic cells after 48 hrs by Annexin V-FITC/propidium iodide staining-based flow cytometric analysis (reference value: 0.34%); assay type: functional
MCF7 [8] = test: Induction of apoptosis in human MCF7 cells assessed as early apoptotic cells after 48 hrs by Annexin V-FITC/propidium iodide staining-based flow cytometric analysis (reference value: 0.85%); assay type: functional
MCF7 [9] = test: Cell cycle arrest in human MCF7 cells assessed as accumulation of cells at G1 phase after 48 hrs by propidium iodide staining-based flow cytometric analysis (reference value: 53.94%); assay type: functional
MCF7 [10] = test: Cell cycle arrest in human MCF7 cells assessed as accumulation of cells at preG phase after 48 hrs by propidium iodide staining-based flow cytometric analysis (reference value: 1.71%); assay type: functional

SMILES: COc1c(C(=O)/C=C/c2ccc(C)o2)c(O)c(CN2CCCCC2)c2occc12
- IC50 (MCF7 [1]): > 100 µM
- IC50 (MDA-MB-231): > 100 µM

SMILES: CS(=O)(=O)CCNCc1ccc(-c2ccc3ncnc(Nc4ccc(OCc5cccc(F)c5)c(Cl)c4)c3c2)o1 [LAPATINIB]
- IC50 (MCF7 [1]): 4.69 µM
- IC50 (MDA-MB-231): 4.69 µM

SMILES: COc1c(-c2cc(-c3ccc(C)o3)[nH]c(=S)n2)c(O)c(CN2CCN(C)CC2)c2occc12
- IC50 (MCF7 [1]): 5.81 µM
- IC50 (MDA-MB-231): > 100 µM

SMILES: COc1c(-c2cc(-c3ccc(C)o3)[nH]c(=O)n2)c(O)c(Br)c2occc12
- IC50 (MCF7 [1]): 1.94 µM
- IC50 (MDA-MB-231): 1.23 µM

SMILES: COc1c(C(=O)/C=C/c2ccc(C)o2)c(O)c(CN2CCOCC2)c2occc12
- IC50 (MCF7 [1]): > 100 µM
- IC50 (MDA-MB-231): > 100 µM

SMILES: COc1c(-c2cc(-c3ccc(C)o3)[nH]c(=S)n2)c(O)c(CN2CCOCC2)c2occc12
- IC50 (MCF7 [1]): 7.14 µM
- IC50 (MDA-MB-231): > 100 µM

SMILES: Cc1cc(=O)c2c(OCc3nnc(SCCN4CCOCC4)s3)c3ccoc3cc2o1
- IC50 (MCF7 [1]): 2.78 µM
- IC50 (MDA-MB-231): > 100 µM

SMILES: Cc1cc(C)n(C(=O)COc2c3ccoc3cc3oc(C)cc(=O)c23)n1
- IC50 (MCF7 [1]): 2.5 µM
- IC50 (MDA-MB-231): > 100 µM

SMILES: COc1c(-c2cc(-c3ccc(C)o3)[nH]c(=S)n2)c(O)c(CN2CCCCC2)c2occc12
- IC50 (MCF7 [1]): > 100 µM
- IC50 (MDA-MB-231): > 100 µM

SMILES: Cc1cc(=O)c2c(OCC(=O)NNC(=S)Nc3ccccc3)c3ccoc3cc2o1
- IC50 (MCF7 [1]): 2.44 µM
- IC50 (MDA-MB-231): > 100 µM

SMILES: COc1c(C(=O)/C=C/c2ccc(C)o2)c(O)c(Br)c2occc12
- IC50 (MCF7 [1]): 1.36 µM
- IC50 (MDA-MB-231): 2.1 µM
- IC50 (MAP kinase p38): 0.041 µM

SMILES: Cc1cc(=O)c2c(OCc3nnc(SCCN4CCOCC4)o3)c3ccoc3cc2o1
- IC50 (MCF7 [1]): 3.82 µM
- IC50 (MDA-MB-231): 8.74 µM

SMILES: COc1c(-c2cc(-c3ccc(C)o3)[nH]c(=S)n2)c(O)c(Br)c2occc12
- IC50 (MCF7 [1]): 1.51 µM
- IC50 (MDA-MB-231): 2 µM

SMILES: Cc1cc(=O)c2c(OCc3nnc(S)s3)c3ccoc3cc2o1
- IC50 (MCF7 [1]): 1.65 µM
- IC50 (MDA-MB-231): 7.07 µM

SMILES: Cc1cc(=O)c2c(OCc3nnc(S)o3)c3ccoc3cc2o1
- IC50 (MCF7 [1]): 13.2 µM
- IC50 (MDA-MB-231): 12.4 µM

SMILES: COc1c(C(=O)/C=C/c2ccc(C)o2)c(O)c(CN2CCN(C)CC2)c2occc12
- IC50 (MCF7 [1]): 4.86 µM
- IC50 (MDA-MB-231): > 100 µM

SMILES: COc1c(-c2cc(-c3ccc(C)o3)c(C#N)c(N)n2)c(O)c(Br)c2occc12
- Activity (MCF7 [2]): 9.2%
- Activity (MCF7 [3]): Active
- Activity (MCF7 [4]): 34.81%
- Activity (MCF7 [5]): Active
- IC50 (MCF7 [1]): 1.19 µM
- Activity (MCF7 [6]): 23.63%
- Activity (MCF7 [7]): 2.13%
- IC50 (MDA-MB-231): 2.65 µM
- Activity (MCF7 [8]): 5.36%
- Activity (MCF7 [9]): 41.56%
- Activity (MCF7 [10]): 16.69%
- IC50 (MAP kinase p38): 0.04 µM

From ChEMBL document CHEMBL4480419, “Design and molecular modeling of novel P38α MAPK inhibitors targeting breast cancer, synthesized from oxygen heterocyclic natural compounds” (Bioorg Med Chem, 2019)
